Measured values taken from PMC10584170, “Machine learning-based phenotypic imaging to characterise the targetable biology of Plasmodium falciparum male gametocytes for the development of transmission-blocking antimalarials” (PLOS Pathogens, 2023).
Where two headings read alike, the source gives them in different places.

Experiments:
[1] = system: P. falciparum female gametocytes; experiment: P. falciparum Dual Gamete Formation Assay (PfDGFA), female readout (Pfs25-positive female gametes); type: cell-based, Plasmodium falciparum NF54; conditions: for IC50: this study, read-out: Pf DGFA IC50 FEM
How it was run: (§1)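 Male and female gamete formation were quantified by microscopy image analysis following 24 h incubation of mature NF54 gametocytes with compound and activation at 28°C with xanthurenic acid.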

[2] = system: P. falciparum male gametocytes; experiment: P. falciparum Dual Gamete Formation Assay (PfDGFA), male readout (exflagellation); type: cell-based, Plasmodium falciparum NF54; conditions: for IC50: this study, read-out: Pf DGFA IC50 MALE
How it was run: as §1

[3] = system: P. falciparum male gametocytes; experiment: PhIDDLI timecourse assay, compound added at timepoints after triggering male gametogenesis; type: cell-based, Plasmodium falciparum NF54
Protocol: To gain greater understanding of their activity, selected molecules displaying different inhibition phenotypes in the initial screen were re-tested. Rather than subjecting gametocytes to a 24h preincubation prior to inducing gametogenesis, compounds were added at varying timepoints after triggering male gametogenesis. Samples were then fixed 20 min post-induction, imaged and analysed similarly using the PhIDDLI pipeline.
Alternatively, if compound action over time was to be assessed, 1.5ml tubes with appropriate dilutions of test compounds were prepared for each timepoint. Gametogenesis was then triggered in the mature gametocyte culture with ookinete medium and temperature decrease from 37°C. At appropriate times, 200 μl of triggered culture was sampled and mixed with test compound. All samples were then allowed to continue gametogenesis and fixed as described previously with paraformaldehyde after 20 min (when a DMSO-treated sample could be expected to be exflagellating).
100 μl of the fixed cell suspensions were added to wells of a 24 well plate containing 1ml PBS and a poly-l-lysine-coated glass coverslip. Cells were allowed to settle and adhere to the coverslip overnight at 4°C before coverslips were transferred to a hydrophobic membrane (Parafilm) for immunofluorescence staining in a humidified, dark box. Cells were permeabilised with 0.1% Triton-X100 in PBS for 10 min before washing in PBS three times. Non-specific binding was blocked by incubating coverslips with PBS + 10% fetal bovine serum (FBS) (blocking buffer) for 1 h. Gametocytes and microgametes were visualised by labelling with an anti-alpha tubulin antibody (raised from chicken embryo brain tubulin but cross-reacts with many other species) (clone DM1A (Sigma)) 1:500 dilution in blocking buffer for 1 h, washed as before, and then stained with an anti-mouse Alexa488 secondary antibody (Thermo-Fisher) 1:1,000 dilution in blocking buffer for a further 1 h. After a final series of washes, the coverslips were mounted on glass slides with VectaShield mountant (Vector Laboratories) containing 4′,6-diamidino-2-phenylindole (DAPI) to visualise cellular DNA.
All slides were imaged using a Nikon Ti fluorescence microscope using an x100 oil objective and 1.5x zoom. For each sample, tubulin-postive, DAPI-positive stained gametocytes/gametes were imaged at random. Z-stack images with 0.3μm slices were captured for each field of view and images deconvolved and transformed by maximum intensity projection within the Nikon NIS Elements software. Within raw images, cells were initially identified by an automated analysis pipeline developed in ICY Bioimage Analysis based upon the intensity of the tubulin staining captured which assigns a region of interest (ROI) around each cell. All ROIs were reviewed by a trained operator and adjusted if necessary to reflect the true outline of the cell (for example if two cells touching had been allocated the same ROI). Raw images contained between 1 and 8 extractable cells.
Code for the PhIDDLI pipeline was written in Python 3.8 and executed by command line within a 64-bit Ubuntu virtual machine running within Oracle VM VirtualBox 6.1. […] Principle component analysis of compound phenotypes (Fig 5) was performed using ClustViz (https://biit.cs.ut.ee/clustvis/) using ln(x+1) transformation, and k-means clustering of the resultant PCA data was coded in R and executed in R Studio version 1.1.456 to identify optimum cluster using the elbow method.

[4] = system: HepG2 cells; experiment: HepG2 cytotoxicity counter-screen; conditions: for Mean TOX: mean of the HepG2 TOX50 values; for DGFA Tox50 HepG2: HepG2 value reported with the DGFA screen
[5] = system: P. berghei ookinete development; experiment: P. berghei Ookinete Development Assay (PbODA); type: cell-based, Plasmodium berghei; conditions: Mean TOX HepG2 over Pb ODA value; GREEN = >10-fold; RED = <10-fold
Description: (§2) Fig 1 The activity of TCAMS compound identified in the Pf DGFA screen. (A) 85 molecules were confirmed active in the Pf DGFA. 58 were previously identified in one or more transmission-blocking screens. […] No molecule was identified with >4.7-fold greater activity against female gametocytes. Abbreviations (IC50 = concentration giving 50% inhibition, PbODA = P. berghei Ookinete Development Assay, PfDGFA = P. falciparum Dual Gamete Formation Assay, PfFGAA = P. falciparum Female Gametocyte Activation Assay, PfGCT = P. falciparum Gametocyte Viability ATP Assay).

[6] = system: HepG2 cells; conditions: cited from earlier work
[7] = system: P. falciparum female gametocytes; experiment: P. falciparum Female Gametocyte Activation Assay (PfFGAA); type: cell-based, Plasmodium falciparum; conditions: Mean TOX HepG2 over FGAA IC50; GREEN = >10-fold; RED = <10-fold
Description: as §2

[8] = system: P. falciparum female gametocytes; parameters: method as in Miguel-Blanco et al 2017; conditions: ref Miguel-Blanco et al 2017; read-out: Pf female gametogenesis FGAA IC50; cited from earlier work

Row | SMILES | Cytotox ratio Pf Female [1] | Cytotox ratio Pf Male [2] | IC50 [2] | impact on proportion of cells with replicated DNA ([3]; all timepoints of addition) | effect on exflagellation ([3]; compound added concurrent with triggering male gametogenesis or 2 min later) | effect on exflagellation ([3]; compound added later than 2 min post-induction (up to 10 min)) | Mean TOX [4] | Cytotox ratio Pb Ookinete [5] | ODA TOX50 HepG2 [6] | Cytotox ratio Pf FGAA [7] | IC50 [1] | FGAA TOX50 HepG2 [6] | IC50 [8] | DGFA Tox50 HepG2 [4] | effect on exflagellation ([3]; compound added between 0 and 5 min post induction)
1 | COCCN(C)CCCOc1cc2c(cc1OC)ncn2-c1cc(OCc2ccccc2C(F)(F)F)c(C(N)=O)s1.Cl [TC14] | 1.4 | 22.0 | 620 nM | minimal impact | substantially reduced | not inhibitory | 13.65 µM |  |  |  |  |  |  |  | 
2 | CNC(=O)c1ccccc1Nc1nc(Nc2ccc(N3CCOCC3)cc2)ncc1Cl.Cl [TC28] | 0.223 | 12.4 | 180 nM |  |  |  | 2.23 µM | 3489.3 | 3.631 µM |  |  |  |  |  | 
3 | Cc1cccc(Nc2nc(N[C@@H]3CCCNC3)nc3cc[nH]c(=O)c23)c1.O=C(O)C(F)(F)F [TC29] | 0.532 | 19.5 | 210 nM |  |  |  | 4.09 µM | 3922.6 | 4.57 µM | 2.2 | 7.69 µM | 3.25 µM | 1850 nM |  | 
4 | COc1ccc2nc(-c3cc(-c4ccc(NC(=O)C(C)C)cc4)cnc3N)[nH]c2c1 [TC32] | 0.85 | 19.8 | 430 nM |  |  |  | 8.50 µM | 12253.3 | 8.61 µM |  |  |  |  |  | 
5 | Cl.NC(=O)c1ccccc1Nc1nc(Nc2cccc(N3CCN(CCO)CC3)c2)ncc1Cl [TC33] | 2.7 | 58.3 | 470 nM |  |  |  | 27.38 µM | 311828.0 | 41.687 µM |  |  |  |  |  | 
6 | Cn1c(Sc2ncnc3sccc23)nc2ccccc21 [TC34] | 178.6 | 138.9 | 720 nM |  |  |  | 100.00 µM | 156933.9 | 100 µM | 80.0 | 0.56 µM | 100 µM | 1250 nM | 100 µM | 
7 | Cc1cc(Nc2ncc(C#N)c(Nc3ccccc3C(N)=O)n2)ccc1N1CCN(C)CC1.Cl [TC37] | 0.244 | 45.1 | 40 nM |  |  |  | 1.80 µM | 66058.5 | 3.981 µM | 1.1 | 7.4 µM | 0.4 µM | 1670 nM |  | 
8 | O=C(O)C(F)(F)F.O=c1[nH]ccc2nc(N[C@@H]3CCCNC3)nc(Nc3ccc(S(=O)(=O)N4CCOCC4)cc3)c12 [TC42] | 4.1 | 563.3 | 60 nM |  |  |  | 33.80 µM | 23182.4 | 45.71 µM |  | 8.17 µM |  |  |  | 
9 | Cc1ccc(S(=O)(=O)N(CCCNCc2cccc(O)c2)c2ccccc2)cc1 [TC44] | 4.8 | 119.3 | 310 nM |  |  |  | 36.97 µM | 26220.7 | 34.6737 µM | 32.4 | 7.66 µM | 44.67 µM | 1140 nM |  | 
10 | Cc1ccc(-n2c(Sc3ncnc4sccc34)nnc2N2CCCC2)cc1 [TC46] | 315.2 | 207.3 | 380 nM |  |  |  | 78.79 µM | 177427.8 | 74.1 µM | 160.8 | 0.25 µM | 89.13 µM | 490 nM |  | 
11 | CN1CCN(c2ccc(Nc3ncc(C#N)c(Nc4ccccc4C(N)=O)n3)cc2)CC1.Cl [TC49] | 0.335 | 102.3 | 30 nM |  |  |  | 3.07 µM | 95106.6 | 2.427 µM |  | 9.17 µM |  |  |  | 
12 | COc1ccc(Nc2ncc(OC)c(Nc3ccccc3C(N)=O)n2)cc1N1CCN(C)CC1.O=CO [TC59] | 1.2 | 52.0 | 180 nM |  |  |  | 9.37 µM | 19018.5 | 13.49 µM |  | 7.91 µM |  |  |  | 
13 | Cc1cc(C(=O)OCC(=O)Nc2c(C)n(C)n(-c3ccccc3)c2=O)c(C)n1-c1ccc(F)cc1 [TC63] | 41.8 | 31.4 | 1900 nM |  |  |  | 59.75 µM | 166949.3 | 19.5 µM |  | 1.43 µM |  |  | 100 µM | 
14 | COc1ccc2nc(-c3cc(-c4ccc(NC(C)=O)cc4)cnc3N)[nH]c2c1 [TC69] | 0.755 | 14.0 | 540 nM |  |  |  | 7.55 µM | 10513.6 | 12.02 µM |  |  |  |  |  | 
15 | C#C[C@H]1O[C@@H](n2cnc3c(Nc4cc(Br)cc(C(F)(F)F)c4)ncnc32)[C@H](O)[C@@H]1O [TC70] | 7.9 | 262.6 | 300 nM |  |  |  | 78.77 µM | 88432.3 | 57.54 µM |  |  |  |  | 100 µM | 
16 | COc1ccc(Nc2ncc(Cl)c(Nc3cccnc3C(N)=O)n2)cc1N1CCN(C)CC1.Cl [TC75] | 0.7 | 17.8 | 400 nM |  |  |  | 7.10 µM | 11414.1 | 11.22 µM |  |  |  |  |  | 
17 | CCS(=O)(=O)Nc1ccc2c(c1)/C(=C(/Nc1ccc(CN3CCCCC3)cc1)c1ccccc1)C(=O)N2 [TC81] | 0.9 | 877.0 | 10 nM |  |  |  | 8.77 µM | 6770.0 | 16.98 µM |  |  |  |  |  | 
18 | CC[C@]1(O)C[C@@H]2CN(CCc3c([nH]c4ccccc34)[C@@](C(=O)OC)(c3cc4c(cc3OC)N(C)[C@H]3[C@@](O)(C(=O)OC)[C@H](OC(C)=O)[C@]5(CC)C=CCN6CC[C@]43[C@@H]65)C2)C1 [vinblastine, reference compound] |  |  |  |  |  |  |  |  |  |  |  |  |  |  | strongly inhibited exflagellation
